TGI and GI50 data for 25 compounds are collected here from PubChem BioAssay (NCI).

Holding throughout (experiment): NCI tumour cell line growth inhibition, 48 h
Assay [1] deals with DU-145 prostate.
Assay [2] relates to HOP-62 NSCLC.
Assay [3] relates to HS 578T breast.
Assay [4] deals with HT29 colon.
The subject of assay [5] is MDA-MB-231 breast.
Assay [6] relates to OVCAR-3 ovarian.
In assay [7] the test system is SF-295 CNS.
For assay [8], the system named is SK-MEL-28 melanoma.
Assay [9] deals with SK-OV-3 ovarian.
The subject of assay [10] is U251 CNS.

SMILES strings stand for the structures. Where “and” joins values, the source holds several entries; their conditions need not be identical. Identical values can stand only once.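 How tested: cells in 96-well plates exposed to compound for 48 hours at five concentrations. GI50: concentration for 50% inhibition of growth. TGI denotes the concentration required for complete inhibition of growth.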 Where a SMILES comes first, the peptide text is derived from it. [ ]: non-standard residue; d: D form. The star is where a group is joined. Bn2Val = CC(C)[C@@H](C(=O)*)N(Cc1ccccc1)Cc1ccccc1; NH(4-Cl-benzyl) = Clc1ccc(CN*)cc1; NMeV = CN[C@H](C(=O)O)C(C)C; dNMeA = CN[C@H](C)C(=O)O

Regarding `C=CCP(=O)(CC=C)C(Cl)Cl`, the TGI in [1], in [2], in assay [3], in assay [4], in [5] and in assay [6] was greater than 100 µM throughout. In addition, the TGI in assay [7], in [8], in assay [9] and in assay [10] was greater than 100 µM in each case.

As for `CC1=C2C(=CO[C@H](C)[C@H]2C)C(=O)C(C(=O)O)=C1O`, the TGI in [1] is 68.3 µM; in assay [2], 44.2 µM and 79.3 µM; in assay [3], 96.4 µM; in assay [4], 63.9 µM and 88.9 µM; in assay [5], 58.5 µM; in [6] it was 43.2 µM and 47 µM. Moreover, the TGI in assay [7] is 97.1 µM and 61.3 µM; in assay [8], 93.5 µM and 54.9 µM; in assay [9], 88 µM and 150 µM; in assay [10], 43.4 µM and 41 µM. The GI50 in [2] was 29 µM; in assay [4] it was 18.3 µM; in assay [6] it was 20.2 µM; in [7], 24.7 µM; in assay [8], 23.9 µM; in assay [9], 28 µM. Besides, in [10], the GI50 was 18.8 µM.

Take `O=C(c1cccs1)N1CCN(C(=O)c2cccs2)C1=S`: the TGI was 7.7 µM in assay [1]; 18.8 µM in [2]; greater than 100 µM in [3]; 21 µM in assay [4]; 18.1 µM in assay [5]; 10.7 µM in assay [6]. Also, the TGI in assay [7] came to 30.5 µM; in [8], 19.2 µM; in assay [9] it was 28.9 µM; in assay [10], 18.2 µM.

As for `O=C(N/N=C/C=C/c1ccccc1)c1ccccc1Nc1ccccc1C(=O)N/N=C/C=C/c1ccccc1`, the TGI in assay [1] was greater than 100 µM; in [2], 70.4 µM; in assay [3], greater than 100 µM; in assay [4] it was greater than 100 µM; in assay [5], greater than 100 µM; in assay [6] it was greater than 100 µM. The TGI in assay [7], in assay [8], in [9] and in assay [10] was greater than 100 µM in each case.

Regarding `CN1CC2=C(NC(=S)NC2c2ccccc2)/C(=C/c2ccccc2)C1` (configuration not stated), the TGI in assay [1] was greater than 100 µM; in [2], greater than 100 µM; in assay [3] it was greater than 100 µM; in assay [4], 71.7 µM; in assay [5] it was greater than 10 µM; in [6], greater than 100 µM. For the same compound, the TGI in [7] is greater than 100 µM; in assay [8], 94.3 µM; in [9], 61.8 µM; in assay [10] it was greater than 100 µM.

With `COC(=O)C1C(=O)N(C)C(=O)N2CCCC12` (configuration not stated), the TGI in assay [1], in [2], in assay [3], in [4], in assay [5] and in assay [6] was greater than 100 µM throughout. Also, the TGI in assay [7], in assay [8], in assay [9] and in assay [10] was greater than 100 µM in each case.

With `CCc1cc2c(c3c1CCCC3=O)CC1(Cc3ccc(C(=O)OC)cc3C1)C2` (configuration not stated), the TGI in [1], in [2], in assay [3], in [4], in [5] and in assay [6] was greater than 100 µM each time. Besides, the TGI in assay [7], in [8], in assay [9] and in [10] was greater than 100 µM in each case.

As to `Cc1ccccc1N=C(N)Nc1ccccc1C`, the TGI in assay [1], in [2], in [3], in [4], in assay [5] and in assay [6] was greater than 100 µM each time. Moreover, the TGI in [7], in assay [8], in assay [9] and in assay [10] was greater than 100 µM each time.

In the case of `COc1cc(C2c3cc4c(cc3C3OC[C@@H]2C3CO)OCO4)cc(OC)c1OC` (some centres not stated), the GI50 was 30.4 µM in assay [1], 47.4 µM in assay [2] and 23.9 µM in [6]. Further, the TGI in [1] was greater than 100 µM; in assay [2], greater than 100 µM; in assay [3] it was 95.7 µM; in assay [4], greater than 100 µM; in assay [5], greater than 100 µM; in assay [6] it was 97.9 µM. In addition, the TGI in [7], in assay [8], in assay [9] and in [10] was greater than 100 µM throughout.

With `CC(Oc1ccccc1Cl)C(=O)NN1C(=O)CSC1c1ccccc1` (configuration not stated), the TGI in [1], in [2], in assay [3], in assay [4], in assay [5] and in assay [6] was greater than 100 µM in each case. The TGI in assay [7], in [8], in [9] and in assay [10] was greater than 100 µM throughout.

Take `CN1C(=O)C(O)C[C@@H]1c1ccccc1` (some centres not stated): the TGI in assay [1], in assay [2], in assay [3], in assay [4], in assay [5] and in assay [6] was greater than 100 µM throughout. The TGI in [7], in assay [8], in assay [9] and in assay [10] was greater than 100 µM each time.

For `CC1(C)CC(=O)C2(CC(CSc3ccccc3)C(CS(=O)(=O)c3ccccc3)C2)C(=O)C1` (configuration not stated), the TGI in assay [1], in assay [2], in [3], in assay [4], in assay [5] and in [6] was greater than 100 µM throughout. Moreover, the TGI in assay [7], in assay [8], in assay [9] and in [10] was greater than 100 µM in each case.

`CCCCCCCCCCCCCCCCCCNc1nc(=O)n(C2CC(O)C(COP(=O)(O)O)O2)cc1F` (configuration not stated): the TGI in [1], in assay [2], in assay [3], in assay [4], in assay [5] and in assay [6] was greater than 100 µM in each case. Besides, the TGI in assay [7], in [8], in assay [9] and in [10] was greater than 100 µM in each case.

Take `CC(C)[C@H](NC(=O)[C@H](C(C)C)N(Cc1ccccc1)Cc1ccccc1)C(=O)N(C)[C@H](C(=O)N1CCC[C@H]1C(=O)N(C)[C@H](C)C(=O)NCc1ccc(Cl)cc1)C(C)C` (Bn2Val-V[NMeV]P[dNMeA]-{NH(4-Cl-benzyl)}): the TGI in assay [1] was greater than 100 µM; in [2], 29.5 µM; in assay [3] it was 4.04 µM; in assay [4], 3.54 µM; in [5], 11.8 µM; in assay [6], 9.67 µM. Moreover, the TGI is 11.1 µM in assay [7], 36.3 µM in assay [8], greater than 100 µM in assay [9] and 20.1 µM in assay [10].

`COc1ccc(C(SC2C(O)C(CO)OC2n2ccc(=O)[nH]c2=O)(c2ccccc2)c2ccc(OC)cc2)cc1` (configuration not stated): the TGI in assay [1] is 34.4 µM; in assay [2] it was 40.8 µM; in assay [3] it was 53.6 µM; in [4] it was 35.6 µM; in assay [5], 31 µM; in assay [6], 37.1 µM. The TGI in assay [7] was found to be 43.3 µM; in assay [8] it was 53.9 µM; in assay [9], 84.7 µM; in [10], 30 µM.

For the compound `CN(C)/N=N/c1nc2c(c(=O)n(C)c(=O)n2C)n1CC(O)CO` (configuration not stated), the TGI in [1], in [2], in [3], in [4], in [5] and in [6] was greater than 100 µM each time. Further, the TGI in assay [7], in assay [8], in assay [9] and in assay [10] was greater than 100 µM throughout.

With `C/C(=N\NC(=S)N(C)C)c1cccnn1`, the TGI in [1], in assay [2], in assay [3], in assay [4], in assay [5] and in [6] was greater than 100 µM throughout. Moreover, the TGI in assay [7], in [8], in assay [9] and in assay [10] was greater than 100 µM each time.

As to `O=c1[nH]n(Cc2ccccc2)c2ccc([N+](=O)[O-])cc12`, the TGI in assay [1] is greater than 100 µM; in assay [2] it was greater than 100 µM; in [3] it was greater than 100 µM; in assay [4] it was greater than 100 µM; in assay [5] it was 78.6 µM; in [6], greater than 100 µM. The TGI in assay [7], in [8], in assay [9] and in assay [10] was greater than 100 µM in each case.

Consider `COc1ccc(OC)c(SC(CC(=O)c2ccccc2)c2ccccc2)c1` (configuration not stated), for which the TGI is 21.9 µM in [1]; 39.8 µM in assay [2]; 68.3 µM in assay [3]; 35.8 µM in assay [4]; 25.7 µM in assay [5]; 16.4 µM in [6]. In addition, the TGI in [7] is 31.6 µM; in [8] it was 32.6 µM; in assay [9], 40.3 µM; in assay [10], 31 µM.

For `COc1ccc(C(=O)CC(c2ccccc2)[C@H]2C(c3ccc(OC)cc3)=Nc3c(nc(SC)n(C)c3=O)NC2c2ccccc2)cc1` (some centres not stated), the TGI in [1], in assay [2], in [3], in assay [4], in [5] and in assay [6] was greater than 100 µM in each case. Further, the TGI in [7], in assay [8], in assay [9] and in assay [10] was greater than 100 µM in each case.

In the case of `COc1cccc(N=N/C(=N\NC(=O)c2ccc(C)cc2)c2ccc(N(CCC#N)CCC#N)cc2C)c1`, the TGI in [1], in assay [2], in [3], in [4], in [5] and in assay [6] was greater than 100 µM each time. The TGI in [7], in assay [8], in [9] and in [10] was greater than 100 µM each time.

As for `COc1cnc2c(c1)C(=O)c1c-2n(CCCNCCO)c(=O)c2ccncc12`, the GI50 was 1.36 µM in assay [1]; 1.32 µM in assay [2]; 2.32 µM in assay [3]; 0.633 µM in [4]; 1.95 µM in assay [5]; 2.26 µM in assay [6]. In addition, the GI50 was 0.912 µM in assay [7], 2.08 µM in assay [8], 3.94 µM in [9] and 0.708 µM in [10]. Also, the TGI in assay [1] amounted to 6.73 µM; in [2], 26.6 µM; in assay [3], 10.7 µM; in assay [4] it was 16.7 µM; in assay [5], 10.9 µM; in assay [6] it was 9.73 µM. For the same compound, the TGI in assay [7] worked out at 7.89 µM; in [8], 5.79 µM; in assay [9], 61.3 µM; in [10], 19.4 µM.

In the case of `C/C(=N\Nc1nc2ccccc2n1C)c1cc2ccccc2cn1`, the TGI in [1] is 8.08 µM; in assay [2], greater than 26.3 µM; in [3], 15.1 µM; in assay [4] it was 3.54 µM; in assay [5], 3.21 µM; in assay [7] it was 5.39 µM. In addition, the TGI in [8] was 16.6 µM; in assay [9], 0.761 µM; in assay [10] it was 4.59 µM.

Turning to `CC(C)=CCNc1nc(Cl)nc2nc[nH]c12`, the TGI in [1] is greater than 100 µM; in [2], 79.2 µM; in assay [3], greater than 100 µM; in [4] it was greater than 100 µM; in assay [5] it was 68.2 µM; in assay [6], greater than 100 µM. The TGI was greater than 100 µM in [7], greater than 100 µM in assay [8] and 46 µM in assay [9].

In the case of `O=C(Cc1ccc(Cl)c(Cl)c1)NCC1(N2CCCCC2)CCCCC1`, the TGI in [1], in assay [2], in assay [3], in assay [4], in assay [5] and in assay [6] was greater than 100 µM in each case. The TGI in assay [7], in [9] and in assay [10] was greater than 100 µM in each case.
